Assay results published in ChEMBL document CHEMBL5523771, “Hydrazides as Inhibitors of Histone Deacetylases” (J Med Chem, 2024).

Legend:
Histone deacetylase 1 [1] = molecular target: T1, Histone deacetylase 1 (Homo sapiens, UniProt Q13547); experiment: Inhibition of HDAC1 (unknown origin)
Histone deacetylase 2 [2] = molecular target: T2, Histone deacetylase 2 (Homo sapiens, UniProt Q92769); experiment: Inhibition of HDAC2 (unknown origin)
Histone deacetylase 3 [3] = molecular target: T3, Histone deacetylase 3 (Homo sapiens, UniProt O15379); experiment: Inhibition of HDAC3 (unknown origin)
Histone deacetylase 8 = molecular target: T4, Histone deacetylase 8 (Homo sapiens, UniProt Q9BY41); experiment: Inhibition of HDAC8 (unknown origin)
T4 sequence (Q9BY41 whole entry): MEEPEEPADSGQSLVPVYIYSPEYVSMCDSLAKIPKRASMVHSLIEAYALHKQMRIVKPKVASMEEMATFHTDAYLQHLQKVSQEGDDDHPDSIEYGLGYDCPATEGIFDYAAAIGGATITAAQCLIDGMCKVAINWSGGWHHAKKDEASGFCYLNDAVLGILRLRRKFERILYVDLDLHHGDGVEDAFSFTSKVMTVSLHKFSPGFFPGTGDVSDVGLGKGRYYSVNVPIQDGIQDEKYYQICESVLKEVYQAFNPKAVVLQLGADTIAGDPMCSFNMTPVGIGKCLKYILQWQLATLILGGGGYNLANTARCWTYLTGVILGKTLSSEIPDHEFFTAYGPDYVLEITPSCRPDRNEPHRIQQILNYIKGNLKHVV

Histone deacetylase 4 = Histone deacetylase 4 (Homo sapiens, UniProt P56524); experiment: Inhibition of HDAC4 (unknown origin)
[4] = molecular target: T5, Protein deacetylase HDAC6 (Homo sapiens, UniProt Q9UBN7); experiment: Inhibition of HDAC6 (unknown origin)
T5 sequence (Q9UBN7 whole entry): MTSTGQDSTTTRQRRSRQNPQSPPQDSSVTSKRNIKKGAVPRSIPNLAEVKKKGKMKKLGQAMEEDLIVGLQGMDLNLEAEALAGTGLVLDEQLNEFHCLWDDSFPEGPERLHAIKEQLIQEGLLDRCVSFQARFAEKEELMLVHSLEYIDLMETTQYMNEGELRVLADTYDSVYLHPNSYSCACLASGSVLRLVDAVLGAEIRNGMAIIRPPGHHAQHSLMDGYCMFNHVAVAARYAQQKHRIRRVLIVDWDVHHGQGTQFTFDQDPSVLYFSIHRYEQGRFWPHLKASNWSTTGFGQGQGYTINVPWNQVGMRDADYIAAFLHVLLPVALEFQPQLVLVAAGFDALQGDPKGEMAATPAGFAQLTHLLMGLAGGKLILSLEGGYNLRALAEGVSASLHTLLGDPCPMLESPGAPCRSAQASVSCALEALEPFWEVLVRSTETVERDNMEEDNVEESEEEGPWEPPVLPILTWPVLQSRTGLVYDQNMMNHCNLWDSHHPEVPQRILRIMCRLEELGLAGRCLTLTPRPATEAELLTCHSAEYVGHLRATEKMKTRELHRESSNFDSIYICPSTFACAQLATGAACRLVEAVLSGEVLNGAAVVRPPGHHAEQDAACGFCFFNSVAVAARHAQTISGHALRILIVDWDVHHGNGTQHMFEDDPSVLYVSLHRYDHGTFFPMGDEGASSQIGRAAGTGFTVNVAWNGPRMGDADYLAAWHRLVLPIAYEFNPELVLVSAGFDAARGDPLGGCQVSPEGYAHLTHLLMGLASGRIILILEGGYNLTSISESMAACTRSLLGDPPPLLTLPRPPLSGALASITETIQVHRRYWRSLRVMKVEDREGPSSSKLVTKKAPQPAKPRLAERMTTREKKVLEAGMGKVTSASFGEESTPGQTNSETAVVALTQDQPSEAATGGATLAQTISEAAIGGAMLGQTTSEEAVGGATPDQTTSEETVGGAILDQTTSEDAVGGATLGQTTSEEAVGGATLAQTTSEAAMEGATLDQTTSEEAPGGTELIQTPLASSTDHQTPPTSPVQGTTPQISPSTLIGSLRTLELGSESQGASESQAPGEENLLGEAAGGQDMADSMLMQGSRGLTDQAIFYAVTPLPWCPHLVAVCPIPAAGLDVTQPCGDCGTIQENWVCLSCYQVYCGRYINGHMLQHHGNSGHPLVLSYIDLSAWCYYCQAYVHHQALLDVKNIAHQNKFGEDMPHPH

Histone deacetylase 1 [5] = molecular target: T1, Histone deacetylase 1; experiment: Inhibition of human HDAC1
Histone deacetylase 2 [6] = molecular target: T2, Histone deacetylase 2; experiment: Inhibition of human HDAC2
Histone deacetylase 3 [7] = molecular target: T3, Histone deacetylase 3; experiment: Inhibition of human HDAC3
[8] = Inhibition of human HDAC1 (379 to 382 residues) using RHKKAc-AMC as substrate incubated for 60 mins by […] assay
Histone deacetylase 11 = molecular target: T6, Histone deacetylase 11 (Homo sapiens, UniProt Q96DB2); experiment: Inhibition of human recombinant full length FLAG-tagged HDAC11 transfected in HEK293T cells using Ac-ETDKrnyr-AMC as substrate incubated for 30 mins by fluorescence based analysis
T6 sequence (Q96DB2 whole entry): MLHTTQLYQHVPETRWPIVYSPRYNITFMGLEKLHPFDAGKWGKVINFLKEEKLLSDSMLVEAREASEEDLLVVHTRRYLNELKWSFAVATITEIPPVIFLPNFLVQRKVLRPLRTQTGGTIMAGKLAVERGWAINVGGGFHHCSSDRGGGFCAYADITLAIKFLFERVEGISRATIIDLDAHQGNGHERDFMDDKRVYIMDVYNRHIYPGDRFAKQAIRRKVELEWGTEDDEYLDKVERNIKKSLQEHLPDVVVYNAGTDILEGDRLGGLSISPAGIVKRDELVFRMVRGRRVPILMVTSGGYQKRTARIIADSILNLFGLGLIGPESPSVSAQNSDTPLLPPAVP

T1 sequence (Q13547 whole entry): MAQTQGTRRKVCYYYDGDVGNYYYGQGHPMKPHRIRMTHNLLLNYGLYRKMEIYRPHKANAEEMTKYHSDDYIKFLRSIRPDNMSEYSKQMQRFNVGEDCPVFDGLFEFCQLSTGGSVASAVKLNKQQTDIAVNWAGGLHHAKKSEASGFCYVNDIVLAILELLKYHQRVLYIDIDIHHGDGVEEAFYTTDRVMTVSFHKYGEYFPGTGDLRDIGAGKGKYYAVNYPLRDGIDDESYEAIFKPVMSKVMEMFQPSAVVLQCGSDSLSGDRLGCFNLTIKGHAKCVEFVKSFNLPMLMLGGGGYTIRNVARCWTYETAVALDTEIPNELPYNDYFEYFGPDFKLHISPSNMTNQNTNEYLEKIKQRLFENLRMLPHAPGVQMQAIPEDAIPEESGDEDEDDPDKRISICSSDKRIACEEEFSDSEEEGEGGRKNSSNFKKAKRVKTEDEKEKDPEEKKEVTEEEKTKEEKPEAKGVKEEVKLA
T2 sequence (Q92769 whole entry): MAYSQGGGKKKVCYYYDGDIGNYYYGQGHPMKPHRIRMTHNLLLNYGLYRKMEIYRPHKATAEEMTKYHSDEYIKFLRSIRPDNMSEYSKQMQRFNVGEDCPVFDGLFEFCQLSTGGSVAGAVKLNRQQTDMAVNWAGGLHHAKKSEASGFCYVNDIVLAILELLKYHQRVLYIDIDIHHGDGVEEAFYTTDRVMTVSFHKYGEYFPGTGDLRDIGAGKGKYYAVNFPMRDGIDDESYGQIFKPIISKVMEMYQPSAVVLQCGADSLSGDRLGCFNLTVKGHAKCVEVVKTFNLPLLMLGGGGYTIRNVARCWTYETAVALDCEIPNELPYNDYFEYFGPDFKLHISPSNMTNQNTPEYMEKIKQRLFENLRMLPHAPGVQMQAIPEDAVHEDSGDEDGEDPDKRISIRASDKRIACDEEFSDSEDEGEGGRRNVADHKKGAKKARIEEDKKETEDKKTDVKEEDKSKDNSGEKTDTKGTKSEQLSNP
T3 sequence (O15379 whole entry): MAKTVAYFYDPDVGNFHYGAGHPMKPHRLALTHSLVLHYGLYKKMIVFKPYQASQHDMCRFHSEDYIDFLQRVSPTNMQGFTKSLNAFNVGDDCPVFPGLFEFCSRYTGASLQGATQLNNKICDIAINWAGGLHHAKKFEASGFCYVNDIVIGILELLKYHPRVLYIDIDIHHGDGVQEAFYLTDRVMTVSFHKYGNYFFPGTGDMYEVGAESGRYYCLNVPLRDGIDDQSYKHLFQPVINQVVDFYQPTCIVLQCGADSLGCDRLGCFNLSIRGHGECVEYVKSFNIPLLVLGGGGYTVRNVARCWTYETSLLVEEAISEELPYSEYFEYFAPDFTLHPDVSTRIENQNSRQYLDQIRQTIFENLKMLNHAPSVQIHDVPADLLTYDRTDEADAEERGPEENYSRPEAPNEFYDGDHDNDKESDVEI
Sequence of Histone deacetylase 4 (P56524 whole entry): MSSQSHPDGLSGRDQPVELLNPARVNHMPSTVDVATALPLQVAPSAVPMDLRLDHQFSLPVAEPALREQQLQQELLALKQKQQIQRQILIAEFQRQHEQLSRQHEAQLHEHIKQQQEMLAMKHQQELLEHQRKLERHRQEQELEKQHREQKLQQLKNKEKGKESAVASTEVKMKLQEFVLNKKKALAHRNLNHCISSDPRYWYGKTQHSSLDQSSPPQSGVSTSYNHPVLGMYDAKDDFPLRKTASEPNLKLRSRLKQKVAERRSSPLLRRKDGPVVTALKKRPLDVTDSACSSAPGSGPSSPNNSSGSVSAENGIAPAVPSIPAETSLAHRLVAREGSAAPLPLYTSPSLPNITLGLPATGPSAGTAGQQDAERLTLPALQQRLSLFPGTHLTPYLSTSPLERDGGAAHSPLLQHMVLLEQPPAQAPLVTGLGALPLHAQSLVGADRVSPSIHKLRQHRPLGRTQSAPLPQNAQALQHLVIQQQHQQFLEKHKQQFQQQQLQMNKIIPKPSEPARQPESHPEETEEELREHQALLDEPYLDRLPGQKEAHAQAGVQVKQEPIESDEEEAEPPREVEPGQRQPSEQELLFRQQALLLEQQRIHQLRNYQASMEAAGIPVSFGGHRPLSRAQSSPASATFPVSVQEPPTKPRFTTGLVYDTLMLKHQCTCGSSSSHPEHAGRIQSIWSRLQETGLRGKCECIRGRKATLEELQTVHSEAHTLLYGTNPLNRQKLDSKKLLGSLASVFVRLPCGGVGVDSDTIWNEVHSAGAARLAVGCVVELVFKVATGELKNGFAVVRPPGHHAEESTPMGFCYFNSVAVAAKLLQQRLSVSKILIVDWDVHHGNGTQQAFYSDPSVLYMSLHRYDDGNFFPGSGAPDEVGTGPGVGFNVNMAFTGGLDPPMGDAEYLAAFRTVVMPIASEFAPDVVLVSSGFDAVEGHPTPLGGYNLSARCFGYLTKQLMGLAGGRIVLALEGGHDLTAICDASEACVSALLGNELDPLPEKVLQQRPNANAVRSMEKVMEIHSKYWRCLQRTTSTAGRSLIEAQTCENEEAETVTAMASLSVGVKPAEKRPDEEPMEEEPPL

**Q.** With `CCCC(CCC)C(=O)N[C@@H](Cc1ccccc1)C(=O)NNc1ccccc1` as the compound, how does the IC50 (Histone deacetylase 1 [1]) read?
**A.** 390 nM

**Q.** What about the IC50 (Histone deacetylase 2 [2]) of the same compound?
**A.** 2020 nM

**Q.** What about the IC50 (Histone deacetylase 3 [3]) of the same compound?
**A.** 1490 nM

**Q.** And the IC50 (Histone deacetylase 8)?
**A.** 1540 nM

**Q.** What about the IC50 (Histone deacetylase 4) of the same compound?
**A.** 3180 nM

**Q.** Which IC50 (Histone deacetylase 1 [1]) does the source give for `CCCNNC(=O)c1ccc(Nc2nccc(N(C)c3ccc4c(C)n(C)cc4c3)n2)cc1` here?
**A.** 0.42 nM

**Q.** What about the IC50 [4] of the same compound?
**A.** 8960 nM

**Q.** Which IC50 (Histone deacetylase 1 [5]) does the source give for `CCCNNC(=O)CCCCCCC(=O)Nc1ccccc1` here?
**A.** 828 nM

**Q.** And the IC50 (Histone deacetylase 2 [6])?
**A.** 530 nM

**Q.** What about the IC50 (Histone deacetylase 3 [7]) of the same compound?
**A.** 379 nM

**Q.** Which IC50 [8] does the source give for `CCCCNNC(=O)c1ccc(Br)cc1` here?
**A.** 133 nM

**Q.** For `CCCC(CCC)C(=O)O` [VALPROIC ACID], which IC50 (Histone deacetylase 4) is on record?
**A.** > 100000 nM

**Q.** With `CCCCCCCCCCCCCCCCNNC(=O)c1ccc(N(C)C)cc1` as the compound, how does the IC50 (Histone deacetylase 11) read?
**A.** 910 nM
